Laboratory results published in PubChem BioAssay AID248 (DTP/NCI, 2004).
Inconclusive results and toxic doses are left out.

Test system: L1210 leukemia ip in BDF1 mice, survival T/C
Test: NCI In Vivo Anticancer Drug Screen. Data for tumor model L1210 Leukemia (intraperitoneal) in B6D2F1 (BDF1) mice
Conditions: endpoint: mean survival time, higher = longer survival
Procedure, shortened: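 Mice bearing the transplanted tumor received compound or vehicle. Survival of the treated group was divided by that of the vehicle-treated control group to give the ratio.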

[1] = dose: 5.0 mg/kg/injection, schedule: Q01DX001 (ip), vehicle: saline
[2] = dose: 10.0 mg/kg/injection, schedule: Q01DX001 (ip), vehicle: saline
[3] = dose: 100.0 mg/kg/injection, schedule: Q01DX001 (ip), vehicle: carboxymethylcellulose (CMC)
[4] = dose: 200.0 mg/kg/injection, schedule: Q01DX001 (ip), vehicle: carboxymethylcellulose (CMC)
[5] = dose: 400.0 mg/kg/injection, schedule: Q01DX001 (ip), vehicle: carboxymethylcellulose (CMC)
[6] = dose: 100.0 mg/kg/injection, schedule: Q01DX001 (ip), vehicle: saline
[7] = dose: 100.0 mg/kg/injection, schedule: Q04DX003 (ip), vehicle: Klucel (hydroxypropylcellulose) (HPC)
[8] = dose: 200.0 mg/kg/injection, schedule: Q04DX003 (ip), vehicle: Klucel (hydroxypropylcellulose) (HPC)
[9] = dose: 400.0 mg/kg/injection, schedule: Q04DX003 (ip), vehicle: Klucel (hydroxypropylcellulose) (HPC)
[10] = dose: 100.0 mg/kg/injection, schedule: Q04DX003 (ip), vehicle: saline with Tween-80
[11] = dose: 200.0 mg/kg/injection, schedule: Q04DX003 (ip), vehicle: saline with Tween-80
[12] = dose: 400.0 mg/kg/injection, schedule: Q04DX003 (ip), vehicle: saline with Tween-80
[13] = dose: 100.0 mg/kg/injection, schedule: Q04DX002 (ip), vehicle: Klucel (hydroxypropylcellulose) (HPC)
[14] = dose: 200.0 mg/kg/injection, schedule: Q04DX002 (ip), vehicle: Klucel (hydroxypropylcellulose) (HPC)
[15] = dose: 400.0 mg/kg/injection, schedule: Q04DX002 (ip), vehicle: Klucel (hydroxypropylcellulose) (HPC)
[16] = dose: 200.0 mg/kg/injection, schedule: Q01DX001 (ip), vehicle: saline
[17] = dose: 100.0 mg/kg/injection, schedule: Q01DX009 (ip), vehicle: saline
[18] = dose: 200.0 mg/kg/injection, schedule: Q01DX009 (ip), vehicle: saline
[19] = dose: 100.0 mg/kg/injection, schedule: Q04DX003 (ip), vehicle: saline
[20] = dose: 200.0 mg/kg/injection, schedule: Q04DX003 (ip), vehicle: saline
[21] = dose: 100.0 mg/kg/injection, schedule: Q04DX002 (ip), vehicle: saline with Tween-80
[22] = dose: 200.0 mg/kg/injection, schedule: Q04DX002 (ip), vehicle: saline with Tween-80
[23] = dose: 50.0 mg/kg/injection, schedule: Q04DX003 (ip), vehicle: Klucel (hydroxypropylcellulose) (HPC)

## c1ccc([P+](CCCCCCCCCC[P+](c2ccccc2)(c2ccccc2)c2ccccc2)(c2ccccc2)c2ccccc2)cc1
[1]
  T/C: 105 % of control
[2]
  T/C: 102 % of control
dose: 20.0 mg/kg/injection, schedule: Q01DX001 (ip), vehicle: saline
  T/C: 110 % of control

## Cc1cn(C2CCCCO2)c(=O)nc1NO (centres undefined)
[3]
  T/C: 95 % of control
[4]
  T/C: 90 % of control
[5]
  T/C: 108 % of control

## CCCCC(=O)N/N=C/c1ccc(Cl)cc1Cl
[6]
  T/C: 91 % of control

## O=C(O)COc1cc(OCC(=O)O)c([N+](=O)[O-])cc1[N+](=O)[O-]
[7]
  T/C: 102 % of control
[8]
  T/C: 102 % of control
[9]
  T/C: 91 % of control

## CCC[CH2][Sn]([CH2]CCC)([CH2]CCC)[S]C(=S)NCCNC(=S)[S][Sn]([CH2]CCC)([CH2]CCC)[CH2]CCC
dose: 0.5 mg/kg/injection, schedule: Q01DX015 (ip), vehicle: carboxymethylcellulose (CMC)
  T/C: 101 % of control
dose: 1.0 mg/kg/injection, schedule: Q01DX015 (ip), vehicle: carboxymethylcellulose (CMC)
  T/C: 103 % of control
dose: 2.5 mg/kg/injection, schedule: Q01DX001 (ip), vehicle: saline
  T/C: 108 % of control
dose: 2.5 mg/kg/injection, schedule: Q01DX015 (ip), vehicle: carboxymethylcellulose (CMC)
  T/C: 110 % of control
[1]
  T/C: 108 % of control
dose: 5.0 mg/kg/injection, schedule: Q01DX015 (ip), vehicle: carboxymethylcellulose (CMC)
  T/C: 103 % of control
[2]
  T/C: 101 % of control
dose: 10.0 mg/kg/injection, schedule: Q01DX015 (ip), vehicle: carboxymethylcellulose (CMC)
  T/C: 113 % of control
dose: 20.0 mg/kg/injection, schedule: Q01DX015 (ip), vehicle: carboxymethylcellulose (CMC)
  T/C: 101 % of control
dose: 30.0 micrograms/kg/injection, schedule: Q01DX015 (ip), vehicle: carboxymethylcellulose (CMC)
  T/C: 106 % of control
dose: 60.0 micrograms/kg/injection, schedule: Q01DX015 (ip), vehicle: carboxymethylcellulose (CMC)
  T/C: 110 % of control
dose: 120.0 micrograms/kg/injection, schedule: Q01DX015 (ip), vehicle: carboxymethylcellulose (CMC)
  T/C: 102 % of control
dose: 240.0 micrograms/kg/injection, schedule: Q01DX015 (ip), vehicle: carboxymethylcellulose (CMC)
  T/C: 102 % of control

## COc1ccc(CN2CCCN(Cc3ccc(OC)cc3OC)C2c2ccc(N(CCCl)CCCl)cc2C)c(OC)c1
dose: 50.0 mg/kg/injection, schedule: Q01DX001 (ip), vehicle: carboxymethylcellulose (CMC)
  T/C: 106 % of control
[3]
  T/C: 104 % of control
[4]
  T/C: 106 % of control
[5]
  T/C: 112 % of control

## O=C(/C=C\C=C\c1ccc2c(c1)OCO2)N1CCCCC1
dose: 50.0 mg/kg/injection, schedule: Q01DX009 (ip), vehicle: saline with Tween-80
  T/C: 105 % of control
dose: 100.0 mg/kg/injection, schedule: Q01DX009 (ip), vehicle: saline with Tween-80
  T/C: 105 % of control
dose: 200.0 mg/kg/injection, schedule: Q01DX009 (ip), vehicle: saline with Tween-80
  T/C: 105 % of control

## CCCCCCCCCCCCCCCC(=O)OCCCCCCCCCCC
[10]
  T/C: 100 % of control
[11]
  T/C: 92 % of control
[12]
  T/C: 101 % of control

## CC(=O)Cc1cc(C)nc(/N=C(\N)N2CCCCC2)n1
[13]
  T/C: 92 % of control
[14]
  T/C: 103 % of control
[15]
  T/C: 96 % of control

## NC1CCCCC1I (centres undefined)
dose: 75.0 mg/kg/injection, schedule: Q01DX001 (ip), vehicle: acetone
  T/C: 94 % of control
dose: 150.0 mg/kg/injection, schedule: Q01DX001 (ip), vehicle: acetone
  T/C: 104 % of control

## O=C(O)COc1ccc(F)c(F)c1
[13]
  T/C: 90 % of control
[14]
  T/C: 104 % of control
[15]
  T/C: 93 % of control

## CCOC(=N)c1nnn(Cc2ccccc2)c1N
[6]
  T/C: 89 % of control
[16]
  T/C: 89 % of control

## NCCCNc1ccccc1
[17]
  T/C: 92 % of control
[18]
  T/C: 98 % of control

## Cc1c[nH]c(=O)c[n+]1[O-]
[19]
  T/C: 97 % of control
[20]
  T/C: 100 % of control
dose: 400.0 mg/kg/injection, schedule: Q04DX003 (ip), vehicle: saline
  T/C: 100 % of control

## CC(=O)NC(C=O)C(OC(C)=O)C(OC(C)=O)C(COC(C)=O)OC(C)=O (centres undefined)
[21]
  T/C: 100 % of control
[22]
  T/C: 107 % of control
dose: 400.0 mg/kg/injection, schedule: Q04DX002 (ip), vehicle: saline with Tween-80
  T/C: 96 % of control

## Nc1c(Cl)cc(C(=O)NC2CC2)cc1Cl
dose: 6.25 mg/kg/injection, schedule: Q01DX009 (ip), vehicle: Klucel (hydroxypropylcellulose) (HPC)
  T/C: 103 % of control
dose: 12.5 mg/kg/injection, schedule: Q01DX009 (ip), vehicle: Klucel (hydroxypropylcellulose) (HPC)
  T/C: 94 % of control
dose: 25.0 mg/kg/injection, schedule: Q01DX009 (ip), vehicle: Klucel (hydroxypropylcellulose) (HPC)
  T/C: 92 % of control
dose: 25.0 mg/kg/injection, schedule: Q04DX003 (ip), vehicle: Klucel (hydroxypropylcellulose) (HPC)
  T/C: 104 % of control
dose: 50.0 mg/kg/injection, schedule: Q01DX009 (ip), vehicle: Klucel (hydroxypropylcellulose) (HPC)
  T/C: 97 % of control
[23]
  T/C: 98 % of control
dose: 100.0 mg/kg/injection, schedule: Q01DX009 (ip), vehicle: Klucel (hydroxypropylcellulose) (HPC)
  T/C: 100 % of control
[7]
  T/C: 104 % of control

## c1ccc2c(N=Nc3cccc4ccccc34)cccc2c1
[3]
  T/C: 97 % of control
[4]
  T/C: 97 % of control
[5]
  T/C: 93 % of control

## S=P(c1cccs1)(c1cccs1)c1cccs1
[10]
  T/C: 93 % of control
[11]
  T/C: 96 % of control
[12]
  T/C: 86 % of control

## Cc1cccc(C)c1C(Cl)CS(=O)(=O)c1ccccc1 (centres undefined)
[7]
  T/C: 102 % of control
[8]
  T/C: 107 % of control
[9]
  T/C: 107 % of control

## Cc1ccc(C2(CO)OCC(O)C(O)C2O)cc1 (centres undefined)
[6]
  T/C: 100 % of control
[16]
  T/C: 96 % of control
dose: 400.0 mg/kg/injection, schedule: Q01DX001 (ip), vehicle: saline
  T/C: 98 % of control

## CC1(C)N=C(N)N=C(N)N1c1ccc(OCCOc2ccc(S(=O)(=O)F)cc2)c(Cl)c1
dose: 33.0 mg/kg/injection, schedule: Q04DX003 (ip), vehicle: Klucel (hydroxypropylcellulose) (HPC)
  T/C: 102 % of control
dose: 33.0 mg/kg/injection, schedule: Q04DX003 (ip), vehicle: saline sonified
  T/C: 117 % of control
dose: 50.0 mg/kg/injection, schedule: Q01DX009 (ip), vehicle: saline sonified
  T/C: 152 % of control
[23]
  T/C: 112 % of control
dose: 75.0 mg/kg/injection, schedule: Q04DX003 (ip), vehicle: Klucel (hydroxypropylcellulose) (HPC)
  T/C: 112 % of control
dose: 75.0 mg/kg/injection, schedule: Q04DX003 (ip), vehicle: saline sonified
  T/C: 113 % of control
dose: 100.0 mg/kg/injection, schedule: Q01DX009 (ip), vehicle: saline sonified
  T/C: 109 % of control
dose: 100.0 mg/kg/injection, schedule: Q04DX003 (ip), vehicle: other
  T/C: 96 % of control
dose: 200.0 mg/kg/injection, schedule: Q04DX003 (ip), vehicle: other
  T/C: 103 % of control
dose: 400.0 mg/kg/injection, schedule: Q04DX003 (ip), vehicle: other
  T/C: 96 % of control

## COC(OC)(/C(Cl)=C(\Cl)c1ccccc1)c1ccccc1
[21]
  T/C: 94 % of control
[22]
  T/C: 88 % of control

## CC(NCCN1CC1)C1CC1 (centres undefined)
dose: 20.0 mg/kg/injection, schedule: Q01DX009 (ip), vehicle: saline
  T/C: 120 % of control

## C[N+]1(C)C2CC(=O)CC1C1CC12 (centres undefined) (tested in a mixture with another compound)
dose: 50.0 mg/kg/injection, schedule: Q01DX009 (ip), vehicle: saline
  T/C: 106 % of control
[17]
  T/C: 108 % of control
[19]
  T/C: 94 % of control
[18]
  T/C: 90 % of control
[20]
  T/C: 100 % of control
